{"source": "patent US20230250054A1", "about": "“SELECTIVE HISTONE DEACETYLASE 6 INHIBITORS” (The Board of Trustees of the University of Illinois, priority 2020, published 2023)", "key": {"physchem": {"assay": "physchem", "details": "PBS"}, "HDAC9": {"biological_target": "T1, HDAC9 (Homo sapiens, UniProt Q9UKV0)", "T1 construct": "made in house; host or cells: HEK293/T17 cells, transient transfection", "T1 sequence (Q9UKV0 whole entry)": "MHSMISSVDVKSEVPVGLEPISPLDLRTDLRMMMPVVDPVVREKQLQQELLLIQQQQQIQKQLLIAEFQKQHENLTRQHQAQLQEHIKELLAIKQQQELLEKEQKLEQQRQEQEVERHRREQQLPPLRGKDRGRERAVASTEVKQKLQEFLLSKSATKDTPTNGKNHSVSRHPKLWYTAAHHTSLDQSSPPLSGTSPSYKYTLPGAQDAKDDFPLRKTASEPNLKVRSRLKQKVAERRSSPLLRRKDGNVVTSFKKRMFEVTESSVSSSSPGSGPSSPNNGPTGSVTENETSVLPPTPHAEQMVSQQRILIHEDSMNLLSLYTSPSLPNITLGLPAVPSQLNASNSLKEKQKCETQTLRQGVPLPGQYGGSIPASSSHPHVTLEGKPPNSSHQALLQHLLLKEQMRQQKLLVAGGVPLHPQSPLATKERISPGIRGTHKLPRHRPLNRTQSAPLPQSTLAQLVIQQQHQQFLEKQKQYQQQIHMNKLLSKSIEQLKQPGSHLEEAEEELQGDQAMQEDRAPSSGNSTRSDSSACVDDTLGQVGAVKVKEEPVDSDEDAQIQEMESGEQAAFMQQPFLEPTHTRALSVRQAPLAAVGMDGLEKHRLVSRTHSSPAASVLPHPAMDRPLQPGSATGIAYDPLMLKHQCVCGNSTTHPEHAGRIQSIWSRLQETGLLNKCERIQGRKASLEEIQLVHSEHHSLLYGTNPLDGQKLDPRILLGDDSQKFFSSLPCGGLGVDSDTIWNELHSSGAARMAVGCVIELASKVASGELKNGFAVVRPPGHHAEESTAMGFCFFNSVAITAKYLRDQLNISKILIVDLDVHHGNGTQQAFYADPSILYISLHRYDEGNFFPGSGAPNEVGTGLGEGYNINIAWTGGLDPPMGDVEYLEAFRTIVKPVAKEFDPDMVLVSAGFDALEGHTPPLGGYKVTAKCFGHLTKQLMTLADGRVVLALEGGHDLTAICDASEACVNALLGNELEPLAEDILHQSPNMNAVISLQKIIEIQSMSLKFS", "assay": "Fluorescence-based HDAC inhibition assay, HDAC9", "format": "biochemical", "details": "for IC50: 10 μM Boc-Lys(TFA)-AMC substrate, mean of two experiments ± SEM", "protocol": "(§1) Briefly, transiently transfected cells were harvested three days post-transfection and the cell pellets resuspended in a lysis buffer (50 mM Tris, 150 mM NaCl, 10 mM KCl, 2 mM MgCl2, 10% glycerol, 0.2% NP-40, 2 Units/mL benzonase, pH 8) supplemented with a cocktail of protease inhibitors (Roche, Basel, Switzerland). Cells were lysed by sonication (30 W; 3×20 s) on ice, and the cell lysate cleared by centrifugation at 40 000×g for 30 min at 4° C. […] Purified proteins were concentrated to 1 mg/mL, aliquoted, flash-frozen in liquid nitrogen, and stored at −80° C. until further use.\n(§2) Briefly, individual HDACs were preincubated with dilution series of tested inhibitors (0-100 μM) in a 384-well plate in the total volume of 40 μL for 10 min at 37° C. in a reaction buffer comprising 50 mM HEPES, 140 mM NaCl, 10 mM KCl, 1 mM TCEP, 0.1% BSA, pH 7.4. Deacetylation reaction was started by the addition of 10 μL of a 10 μM substrate into the HDAC/inhibitor mixture. Following the 30 min incubation at 37° C., the reaction was terminated by the addition of 25 μL of the trypsin solution (4 mg/mL). Fluorescence development by trypsin was carried out at 37° C. for 15 and 60 min for Ac-GAK(Ac)-AMC and Boc-Lys(TFA)-AMC substrate, respectively. […] Non-linear regression analysis was employed to calculate IC50 values using the GraphPad Prism software. […] Reactions without the enzyme or the inhibitor were used to define 0% and 100% of the HDAC activity, respectively."}, "HDAC4": {"biological_target": "HDAC4 (Homo sapiens, UniProt P56524)", "sequence (P56524 whole entry)": "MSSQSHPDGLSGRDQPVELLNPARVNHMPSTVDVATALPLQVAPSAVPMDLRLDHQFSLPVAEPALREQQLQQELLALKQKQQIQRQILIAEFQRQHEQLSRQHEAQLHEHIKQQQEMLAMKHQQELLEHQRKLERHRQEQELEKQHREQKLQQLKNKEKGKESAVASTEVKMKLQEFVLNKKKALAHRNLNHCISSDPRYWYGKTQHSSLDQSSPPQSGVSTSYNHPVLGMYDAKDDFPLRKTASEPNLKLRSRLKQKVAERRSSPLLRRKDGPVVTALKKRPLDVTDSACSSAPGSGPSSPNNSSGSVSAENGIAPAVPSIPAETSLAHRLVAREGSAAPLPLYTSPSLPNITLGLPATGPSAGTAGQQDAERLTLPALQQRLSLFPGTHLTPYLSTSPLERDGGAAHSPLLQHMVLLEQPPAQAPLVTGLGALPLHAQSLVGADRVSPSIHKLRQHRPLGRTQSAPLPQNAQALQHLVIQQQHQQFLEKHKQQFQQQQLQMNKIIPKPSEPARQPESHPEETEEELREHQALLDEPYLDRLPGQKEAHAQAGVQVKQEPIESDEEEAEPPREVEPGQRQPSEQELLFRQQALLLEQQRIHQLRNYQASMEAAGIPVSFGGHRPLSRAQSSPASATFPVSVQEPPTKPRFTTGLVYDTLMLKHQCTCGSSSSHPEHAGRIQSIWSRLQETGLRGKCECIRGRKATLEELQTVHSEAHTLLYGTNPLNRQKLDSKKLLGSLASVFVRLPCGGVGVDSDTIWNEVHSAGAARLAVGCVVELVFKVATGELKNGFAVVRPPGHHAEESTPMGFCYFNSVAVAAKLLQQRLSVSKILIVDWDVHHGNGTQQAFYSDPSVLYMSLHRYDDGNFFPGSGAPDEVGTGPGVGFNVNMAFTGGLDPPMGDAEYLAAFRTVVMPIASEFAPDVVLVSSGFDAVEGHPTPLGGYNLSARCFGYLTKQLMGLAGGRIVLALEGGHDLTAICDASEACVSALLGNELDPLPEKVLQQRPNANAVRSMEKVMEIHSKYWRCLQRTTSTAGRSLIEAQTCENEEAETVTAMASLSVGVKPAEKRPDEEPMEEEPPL", "assay": "Fluorescence-based HDAC inhibition assay, HDAC4", "format": "biochemical", "details": "for IC50: 10 μM Boc-Lys(TFA)-AMC substrate, mean of two experiments ± SEM", "protocol": "as §1, with “Large scale expression of human HDACs was carried out in HEK293/T17 cells essentially as described previously (see, e.g., Falkenberg et al., Nat. Rev. Drug Discov. 13, 673-691 (2014); or Matthias et al., Cell Cycle 7: 7-10 (2008)). Briefly,” for “Briefly,”\nBriefly, individual HDACs were preincubated with dilution series of tested inhibitors (0-100 μM) in a 384-well plate in the total volume of 40 μL for 10 min at 37° C. in a reaction buffer comprising 50 mM HEPES, 140 mM NaCl, 10 mM KCl, 1 mM TCEP, 0.1% BSA, pH 7.4. Deacetylation reaction was started by the addition of 10 μL of a 10 μM substrate into the HDAC/inhibitor mixture. Following the 30 min incubation at 37° C., the reaction was terminated by the addition of 25 μL of the trypsin solution (4 mg/mL). Fluorescence development by trypsin was carried out at 37° C. for 15 and 60 min for Ac-GAK(Ac)-AMC and Boc-Lys(TFA)-AMC substrate, respectively. Released aminomethylcoumarin was quantified using a CLARIOstar fluorimeter with the excitation and emission wavelengths set to 365 nm and 440 nm, respectively. Non-linear regression analysis was employed to calculate IC50 values using the GraphPad Prism software. […] Reactions without the enzyme or the inhibitor were used to define 0% and 100% of the HDAC activity, respectively."}, "HDAC6": {"biological_target": "T2, HDAC6 (Homo sapiens, UniProt Q9UBN7)", "T2 construct": "our assay that uses approximately 0.6 nM concentration of the full-length enzyme; made in house; host or cells: HEK293/T17 cells, transient transfection", "T2 sequence (Q9UBN7 1-1215)": "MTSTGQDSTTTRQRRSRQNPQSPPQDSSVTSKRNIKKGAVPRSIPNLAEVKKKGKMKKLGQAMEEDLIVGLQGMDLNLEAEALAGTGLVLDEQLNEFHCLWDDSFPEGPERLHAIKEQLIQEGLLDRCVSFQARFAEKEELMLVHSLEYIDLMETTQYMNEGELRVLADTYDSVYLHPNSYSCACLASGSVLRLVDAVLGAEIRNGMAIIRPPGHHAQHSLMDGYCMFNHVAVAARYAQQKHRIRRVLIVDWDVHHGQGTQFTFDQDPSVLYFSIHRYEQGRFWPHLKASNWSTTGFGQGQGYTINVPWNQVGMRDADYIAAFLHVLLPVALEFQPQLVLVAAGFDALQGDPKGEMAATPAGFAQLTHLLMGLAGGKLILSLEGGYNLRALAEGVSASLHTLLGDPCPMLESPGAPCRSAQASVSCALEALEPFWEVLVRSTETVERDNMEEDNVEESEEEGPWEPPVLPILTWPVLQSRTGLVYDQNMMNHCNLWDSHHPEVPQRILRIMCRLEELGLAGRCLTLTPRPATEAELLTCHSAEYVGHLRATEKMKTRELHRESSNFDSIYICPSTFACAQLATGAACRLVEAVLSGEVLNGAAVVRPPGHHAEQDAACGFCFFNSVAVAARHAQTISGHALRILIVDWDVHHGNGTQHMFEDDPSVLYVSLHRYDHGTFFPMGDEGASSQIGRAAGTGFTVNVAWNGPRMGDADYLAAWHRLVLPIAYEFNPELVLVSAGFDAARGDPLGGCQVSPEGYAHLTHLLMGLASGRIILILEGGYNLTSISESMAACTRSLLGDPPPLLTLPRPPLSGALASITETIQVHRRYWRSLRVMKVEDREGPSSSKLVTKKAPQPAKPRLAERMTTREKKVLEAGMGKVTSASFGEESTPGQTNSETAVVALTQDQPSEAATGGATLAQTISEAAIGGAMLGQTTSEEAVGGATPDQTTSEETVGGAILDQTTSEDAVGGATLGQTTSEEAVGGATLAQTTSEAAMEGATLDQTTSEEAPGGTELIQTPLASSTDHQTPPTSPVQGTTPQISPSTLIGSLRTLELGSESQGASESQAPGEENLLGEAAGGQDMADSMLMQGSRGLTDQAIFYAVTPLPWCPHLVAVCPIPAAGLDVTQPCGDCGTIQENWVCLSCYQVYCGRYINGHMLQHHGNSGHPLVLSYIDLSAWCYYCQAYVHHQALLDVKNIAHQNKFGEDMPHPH", "assay": "Fluorescence-based HDAC inhibition assay, HDAC6", "format": "biochemical", "details": "for LE (ligand efficiency): 1.4 × pIC50/number of heavy atoms; for selectivity over Class IIa isoforms HDAC4, 5, 7, and 9: HDAC6 vs HDAC4, 5, 7 and 9; for LipE (lipophilic ligand efficiency): pIC50 − clog Po/w", "protocol": "as §1, §2"}, "[1]": {"details": "10 μM Ac-GAK(Ac)-AMC substrate, mean of two experiments ± SEM"}}, "data": [{"smiles": "NCc1ccc(NC(=O)N(CCCCO)Cc2ccc(C(=O)NO)cc2)cc1", "note": "[Compound 6a, 4-((3-(4-(Aminomethyl)phenyl)-1-(4-hydroxybutyl)ureido)methyl)-N-hydroxybenz-amide]", "values": [{"measurement": "half-life", "setting": "physchem", "value": "> 24", "unit": "h"}, {"measurement": "SI (HDAC6 selectivity index over HDAC9)", "setting": "HDAC9", "value": "15,700"}, {"measurement": "IC50", "setting": "HDAC9", "value": 6.27, "unit": "µM"}, {"measurement": "SI (HDAC6 selectivity index over HDAC4)", "setting": "HDAC4", "value": "20,600"}, {"measurement": "IC50", "setting": "HDAC4", "value": 8.25, "unit": "µM"}, {"measurement": "SI (HDAC6 selectivity index), HDAC6", "setting": "HDAC6", "value": 1}, {"measurement": "IC50", "setting": "HDAC6; [1]", "value": 0.0004, "unit": "µM"}, {"measurement": "LE (ligand efficiency)", "setting": "HDAC6", "value": 0.47}, {"measurement": "selectivity over Class IIa isoforms HDAC4, 5, 7, and 9", "setting": "HDAC6", "value": "thousand-fold selectivity"}, {"measurement": "IC50", "setting": "HDAC6; Table 2", "value": 0.0004, "unit": "µM"}, {"measurement": "LipE (lipophilic ligand efficiency)", "setting": "HDAC6", "value": 7.57}]}, {"smiles": "O=C(NO)c1ccc(CN(CCCCO)C(=O)Nc2ccccc2)cc1", "note": "[Compound 6c, reference compound]", "values": [{"measurement": "SI (HDAC6 selectivity index over HDAC9)", "setting": "HDAC9", "value": "59,50"}, {"measurement": "IC50", "setting": "HDAC9", "value": 29.7, "unit": "µM"}, {"measurement": "IC50", "setting": "HDAC4", "value": 14, "unit": "µM"}, {"measurement": "SI (HDAC6 selectivity index), HDAC6", "setting": "HDAC6", "value": 1}, {"measurement": "IC50", "setting": "HDAC6; [1]", "value": 0.0005, "unit": "µM"}, {"measurement": "LE (ligand efficiency)", "setting": "HDAC6", "value": 0.50}, {"measurement": "selectivity over Class IIa isoforms HDAC4, 5, 7, and 9", "setting": "HDAC6", "value": "thousand-fold selectivity"}, {"measurement": "LipE (lipophilic ligand efficiency)", "setting": "HDAC6", "value": 6.98}]}, {"smiles": "CCCCN(Cc1ccc(C(=O)NO)cc1)C(=O)Nc1ccc(CN)cc1", "note": "[Compound 6b, 4-((3-(4-(Aminomethyl)phenyl)-1-butylureido)methyl)-N-hydroxybenzamide]", "values": [{"measurement": "SI (HDAC6 selectivity index over HDAC9)", "setting": "HDAC9", "value": "19,200"}, {"measurement": "IC50", "setting": "HDAC9", "value": 17.3, "unit": "µM"}, {"measurement": "SI (HDAC6 selectivity index over HDAC4)", "setting": "HDAC4", "value": "25,700"}, {"measurement": "IC50", "setting": "HDAC4", "value": 23.1, "unit": "µM"}, {"measurement": "SI (HDAC6 selectivity index), HDAC6", "setting": "HDAC6", "value": 1}, {"measurement": "IC50", "setting": "HDAC6; [1]", "value": "0.0009 ± 0.0007", "unit": "µM"}, {"measurement": "LE (ligand efficiency)", "setting": "HDAC6", "value": 0.47}, {"measurement": "LipE (lipophilic ligand efficiency)", "setting": "HDAC6", "value": 6.59}]}]}
